Like-named read-outs stand apart in the source and are kept apart here.
System: P. falciparum 3D7 gametocytes
Experiment: alamarBlue gametocyte viability assay, strain 3D7
Format: cell-based, Plasmodium falciparum
Conditions: for Max Resp: DMSO set at 0%, 100 nM epoxomicin set at -100%; for Curve Class / IC50: stages III-V 3D7 gametocytes; for IC50: 11 concentrations, 1:3 dilution; call rule not given here

## Cl.Cn1c(=O)n(C)c2cc(CNCCNc3ccnc4cc(Cl)ccc34)ccc21 [MMV665875]
Malaria Box
  Max Resp: -41%
  Curve Class: -1.2
Malaria Box, read-out: IC50
  IC50: 0.372 µM

## CCC(c1ccccc1)c1nn2c(-c3cccs3)nnc2s1 (stereo not drawn) [MMV665876]
Malaria Box
  Max Resp: -47%
  Curve Class: -2.2
  IC50: Inactive

## COc1cccc(NC(=O)[C@H](C(C)C)n2c(=O)[nH]c3ccccc3c2=O)c1 [MMV665878]
Malaria Box
  Max Resp: -82%
  Curve Class: -1.1
Malaria Box, read-out: IC50
  IC50: 2.64 µM

## CC(C)(C)C(=O)Nc1ccc(C(=O)Nc2cccc(-c3nc4ccccc4[nH]3)c2)cc1 [MMV665879]
Malaria Box
  Max Resp: -23%
  Curve Class: 4
  IC50: Inactive

## COc1ccc(CNC(=O)c2cc3c(=O)n4ccccc4nc3n(CCc3ccccc3)c2=N)cc1 [MMV665881]
Malaria Box
  Max Resp: -29%
  Curve Class: 4
  IC50: Inactive

## OC(CNC1CCCCC1)Cn1c2ccc(I)cc2c2cc(I)ccc21 (stereo not drawn) [MMV665882]
Malaria Box
  Max Resp: -97%
  Curve Class: -2.1
Malaria Box, read-out: IC50
  IC50: 2.96 µM

## O=C(Nc1cccc(-c2nc3ccccc3[nH]2)c1)c1cccc(NC(=O)c2ccco2)c1 [MMV665883]
Malaria Box
  Max Resp: -25%
  Curve Class: 4
  IC50: Inactive

## CC(Oc1ccc(NC(=O)c2cccs2)cc1)C(=O)c1ccc(Cl)cc1 (stereo not drawn) [MMV665886]
Malaria Box
  Max Resp: 44%
  Curve Class: 2.2
Malaria Box, read-out: IC50
  IC50: 18.7 µM

## O=C(Nc1ccccc1O)c1ccc(Oc2cccc(C(=O)Nc3ccccc3O)c2)cc1 [MMV665888]
Malaria Box
  Max Resp: -76%
  Curve Class: -2.2
Malaria Box, read-out: IC50
  IC50: 14.8 µM

## COc1ccc(-c2nonc2NC(=O)c2cccc(C)c2)cc1OC [MMV665890]
Malaria Box
  Max Resp: -38%
  Curve Class: -3
  IC50: Inactive

## c1ccc(-c2ccc(-c3nc4ccccc4[nH]3)cc2)cc1 [MMV665891]
Malaria Box
  Max Resp: 18%
  Curve Class: 4
  IC50: Inactive

## CC(=O)c1sc(NC(=O)Nc2ccc(C)cc2C)nc1C [MMV665894]
Malaria Box
  Max Resp: -23%
  Curve Class: 4
  IC50: Inactive

## COc1ccc2nc(N)nc(C)c2c1 [MMV665897]
Malaria Box
  Max Resp: -66%
  Curve Class: -2.2
Malaria Box, read-out: IC50
  IC50: 29.6 µM

## COc1cc(C(=O)Nc2ccc(-c3nc4ccccc4[nH]3)cc2)cc(OC)c1OC [MMV665898]
Malaria Box
  Max Resp: -26%
  Curve Class: 4
  IC50: Inactive

## O=C(c1ccccc1F)N(Cc1ccc(Cl)cc1)c1ccccn1 [MMV665899]
Malaria Box
  Max Resp: -26%
  Curve Class: 4
  IC50: Inactive

## O=C(Nc1ccc(CN2CCOCC2)cc1)c1ccc(-c2ccc(Br)cc2)o1 [MMV665901]
Malaria Box
  Max Resp: -41%
  Curve Class: -2.4
  IC50: Inactive

## Cl.N=c1n(CCN2CCCCC2)c2ccccc2n1CC(O)c1cccc(Br)c1 (stereo not drawn) [MMV665902]
Malaria Box
  Max Resp: -99%
  Curve Class: -1.1
Malaria Box, read-out: IC50
  IC50: 3.72 µM

## COCCn1c(C)nc2ccccc2c1=O [MMV665904]
Malaria Box
  Max Resp: -7%
  Curve Class: 4
  IC50: Inactive

## Cc1ccc(-c2cc(C(=O)Nc3ccc(S(=O)(=O)N4CCCCC4)cc3)[nH]n2)c(O)c1 [MMV665906]
Malaria Box
  Max Resp: -61%
  Curve Class: -1.2
Malaria Box, read-out: IC50
  IC50: 5.26 µM

## COc1ccc(N2CCN(C(CNC(=O)CC(C)(C)C)c3ccc4c(c3)OCO4)CC2)cc1 (stereo not drawn) [MMV665908]
Malaria Box
  Max Resp: -26%
  Curve Class: 4
  IC50: Inactive

## O=C(Nc1nc(-c2ccccn2)cs1)c1ccccc1Br [MMV665909]
Malaria Box
  Max Resp: -65%
  Curve Class: -2.2
Malaria Box, read-out: IC50
  IC50: 18.7 µM

## CCOc1ccc(-c2nc(NC(=O)c3cccc(S(C)(=O)=O)c3)sc2C)cc1 [MMV665913]
Malaria Box
  Max Resp: -15%
  Curve Class: 4
  IC50: Inactive

## COc1ccccc1N1CCN(C(CNS(=O)(=O)c2ccc(Cl)cc2)c2cccnc2)CC1 (stereo not drawn) [MMV665914]
Malaria Box
  Max Resp: -63%
  Curve Class: -2.2
Malaria Box, read-out: IC50
  IC50: 29.6 µM

## COc1ccc(-c2nc(NC(=O)CS(=O)(=O)c3ccc(F)cc3)sc2C)cc1 [MMV665915]
Malaria Box
  Max Resp: -44%
  Curve Class: -2.2
  IC50: Inactive

## COc1ccccc1CNC(=O)CCn1c(=O)[nH]c2ccccc2c1=O [MMV665916]
Malaria Box
  Max Resp: -1%
  Curve Class: 4
  IC50: Inactive

## O=C(Nc1ccc(Cl)cc1)N1CCN(c2ccc3nncn3n2)CC1 [MMV665917]
Malaria Box
  Max Resp: -1%
  Curve Class: 4
  IC50: Inactive

## O=C(CSc1ccc2nnc(-c3cccc(F)c3)n2n1)Nc1ccc2c(c1)OCO2 [MMV665918]
Malaria Box
  Max Resp: -14%
  Curve Class: 4
  IC50: Inactive

## N=c1c2ccccc2nnn1-c1cccc(C(F)(F)F)c1 [MMV665923]
Malaria Box
  Max Resp: 14%
  Curve Class: 4
  IC50: Inactive

## COc1ccc(C(=O)C2CC2c2ccc(Cl)cc2)cc1 (stereo not drawn) [MMV665924]
Malaria Box
  Max Resp: -23%
  Curve Class: 4
  IC50: Inactive

## O=C(CCl)NCCOc1ccc(Cl)cc1Cl [MMV665927]
Malaria Box
  Max Resp: -88%
  Curve Class: -2.1
Malaria Box, read-out: IC50
  IC50: 16.6 µM

## CCC(C)NCC(O)(c1ccc(Cl)cc1)c1ccc(Cl)cc1 (stereo not drawn) [MMV665928]
Malaria Box
  Max Resp: -78%
  Curve Class: -2.2
Malaria Box, read-out: IC50
  IC50: 5.9 µM

## CCCCNCC(O)(c1ccc(Cl)cc1)c1ccc(Cl)cc1 [MMV665929]
Malaria Box
  Max Resp: -73%
  Curve Class: -1.2
Malaria Box, read-out: IC50
  IC50: 2.96 µM

## O=C1c2ccccc2-c2nnc(-c3ccc(Br)cc3)cc21 [MMV665934]
Malaria Box
  Max Resp: 17%
  Curve Class: 4
  IC50: Inactive

## FC(F)(F)c1ccc(Nc2nnnc3ccccc23)cc1 [MMV665935]
Malaria Box
  Max Resp: 25%
  Curve Class: 4
  IC50: Inactive

## Cc1ccc(S(=O)(=O)c2c(COC(=O)c3cccc(C)c3)c(-c3ccccc3)nn2C)cc1 [MMV665936]
Malaria Box
  Max Resp: 5%
  Curve Class: 4
  IC50: Inactive

## CCOc1ccc(/C=C/c2nc(=O)c3ccccc3o2)cc1 [MMV665940]
Malaria Box
  Max Resp: 46%
  Curve Class: 2.2
Malaria Box, read-out: IC50
  IC50: 18.7 µM

## CN(C)c1ccc(C(O)(c2ccc(N(C)C)cc2)c2ccc(N(C)C)cc2)cc1 [MMV665941]
Malaria Box
  Max Resp: -118%
  Curve Class: -1.1
Plasmodium falciparum, 3D7, Malaria Box, read-out: IC50
  IC50: 5.9 µM

## Nc1ccc(-c2nc3cc(Cc4ccc5[nH]c(-c6ccc(N)cc6)nc5c4)ccc3[nH]2)cc1 [MMV665943]
Malaria Box
  Max Resp: -69%
  Curve Class: -2.2
Malaria Box, read-out: IC50
  IC50: 29.6 µM

## COc1ccc(CN2CCN(Cc3ccccc3)CC2)c(O)c1 [MMV665944]
Malaria Box
  Max Resp: -96%
  Curve Class: -2.1
Malaria Box, read-out: IC50
  IC50: 6.62 µM

## CC(C)=CCN1CCC(C(=O)Nc2ccc(-c3nc4ccccc4[nH]3)cc2)CC1 [MMV665946]
Malaria Box
  Max Resp: -77%
  Curve Class: -2.2
Malaria Box, read-out: IC50
  IC50: 14.8 µM

## O=C(Nc1ccccc1O)c1ccc(-c2ccc(Cl)cc2Cl)o1 [MMV665948]
Malaria Box
  Max Resp: -52%
  Curve Class: -1.4
Malaria Box, read-out: IC50
  IC50: 5.9 µM

## Oc1ccc(C(=C(Cl)Cl)c2ccc(O)cc2)cc1 [MMV665949]
Malaria Box
  Max Resp: -40%
  Curve Class: -1.2
Malaria Box, read-out: IC50
  IC50: 9.35 µM

## O=C(Nc1ccc(F)c(Cl)c1)Nc1ccc(Cl)c(Cl)c1 [MMV665953]
Malaria Box
  Max Resp: -94%
  Curve Class: -2.1
Malaria Box, read-out: IC50
  IC50: 18.7 µM

## O=C(NCC1Cc2cccc(-c3ccncc3)c2O1)c1csc2c1CCCC2 (stereo not drawn) [MMV665954]
Malaria Box
  Max Resp: 5%
  Curve Class: 4
  IC50: Inactive

## CCN(CC)CCCNc1nc(-c2ccc(Cl)cc2)nc2ccccc12 [MMV665961]
Malaria Box
  Max Resp: -95%
  Curve Class: -2.1
Malaria Box, read-out: IC50
  IC50: 16.6 µM

## COc1cccc(C(=O)NC(c2ccc(C)cc2)c2cc(Cl)c3cccnc3c2O)c1 (stereo not drawn) [MMV665969]
Malaria Box
  Max Resp: -76%
  Curve Class: -2.2
Malaria Box, read-out: IC50
  IC50: 11.8 µM

## CCOC(=O)C1=C(C)N=c2sc(=Cc3cc(Cl)ccc3O)c(=O)n2C1c1ccc(OC)cc1 (stereo not drawn) [MMV665971]
Malaria Box
  Max Resp: -40%
  Curve Class: -1.2
Malaria Box, read-out: IC50
  IC50: 2.96 µM

## O=C(Cc1ccccc1)NC(c1ccc(Cl)cc1)c1c(O)ccc2ccccc12 (stereo not drawn) [MMV665972]
Malaria Box
  Max Resp: -62%
  Curve Class: -2.2
Malaria Box, read-out: IC50
  IC50: 29.6 µM

## CCOC(=O)c1cn(CC)c2cc(N(C)CCc3ccc(OC)c(OC)c3)c(F)cc2c1=O [MMV665977]
Malaria Box
  Max Resp: 2%
  Curve Class: 4
  IC50: Inactive

## FC(F)(F)c1cccc(CNC2CCN(CCc3ccccc3)CC2)c1 [MMV665979]
Malaria Box
  Max Resp: -89%
  Curve Class: -2.1
Malaria Box, read-out: IC50
  IC50: 14.8 µM

## OC1CCCCC1C1(NC(=S)Nc2ccccc2)CCCCC1 (stereo not drawn) [MMV665980]
Malaria Box
  Max Resp: -81%
  Curve Class: -2.1
Malaria Box, read-out: IC50
  IC50: 11.8 µM

## CCCCCCc1cc(O)c2c3c(c(=O)oc2c1)CCC(C)C3 (stereo not drawn) [MMV665987]
Malaria Box
  Max Resp: 0%
  Curve Class: 4
  IC50: Inactive

## Cc1nc2ccccc2c(O)c1CC=C(Cl)Cl [MMV665994]
Malaria Box
  Max Resp: 5%
  Curve Class: 4
  IC50: Inactive

## CN1c2ccccc2N(C)C1c1ccc2c(c1)OCO2 [MMV666009]
Malaria Box
  Max Resp: -36%
  Curve Class: -2.4
  IC50: Inactive

## Cc1ccc(OCCCCCCNCCO)c(C)c1 [MMV666020]
Malaria Box
  Max Resp: -64%
  Curve Class: -2.2
Malaria Box, read-out: IC50
  IC50: 37.2 µM

## Cc1ccc(-c2cc3c(nn2)-c2ccccc2C3=O)cc1 [MMV666021]
Malaria Box
  Max Resp: -4%
  Curve Class: 4
  IC50: Inactive

## COc1ccc(C(=O)NC(c2ccccc2Cl)c2cc(Cl)c3cccnc3c2O)cc1 (stereo not drawn) [MMV666022]
Malaria Box
  Max Resp: -83%
  Curve Class: -2.1
Malaria Box, read-out: IC50
  IC50: 14.8 µM

## c1ccc(Cn2c(N=Nc3c(Nc4ccccc4)ccc4ccccc34)nc3ccccc32)cc1 [MMV666023]
Malaria Box
  Max Resp: -89%
  Curve Class: -2.1
Malaria Box, read-out: IC50
  IC50: 10.5 µM

Reference: article PMC3894558, “Chemical signatures and new drug targets for gametocytocidal drug development” (Scientific Reports, 2014)
